Results reported in BigSolDB 2.1.

CC#C[C@]1(O)CC[C@H]2[C@@H]3CCC4=CC(=O)CCC4=C3[C@@H](c3ccc(N(C)C)cc3)C[C@@]21C
solubility (mole fraction)
Conditions	273.15 K	278.15 K	283.15 K	288.15 K	293.15 K	298.15 K	303.15 K	308.15 K	313.15 K	318.15 K
in THF	5.16e-05	6e-05	6.95e-05	8.05e-05	9.3e-05	0.000107	0.000123	0.000142	0.000163	0.000188
in acetone	0.000149	0.000184	0.000228	0.000281	0.000345	0.000422	0.000516	0.000628	0.000762	0.000922
in ethanol	0.000122	0.000146	0.000174	0.000206	0.000244	0.000289	0.000341	0.000401	0.000472	0.000552
in ethyl acetate	0.000103	0.000125	0.000152	0.000184	0.000223	0.00027	0.000325	0.000392	0.000471	0.000565
in isopropanol	7.13e-05	0.000109	0.000164	0.000244	0.000358	0.000518	0.00074	0.00105	0.00146	0.00202
in methanol	0.000445	0.00058	0.000756	0.000982	0.00128	0.00164	0.0021	0.00266	0.00333	0.00414
in n-butanol	0.000172	0.000213	0.000264	0.000332	0.000412	0.000502	0.000612	0.000733	0.000875	0.00103
in n-propanol	0.000138	0.000163	0.000192	0.000226	0.000266	0.00031	0.000362	0.000428	0.000499	0.000582
